Measured values published in patent US20180369186A1, “METHOD FOR MODULATING AUTOPHAGY AND APPLICATIONS THEREOF” (JAWAHARLAL NEHRU CENTRE FOR ADVANCED SCIENTIFIC RESEARCH, priority 2015, published 2018).

Key:
LC3B-II = assay: LC3 processing assay in HeLa cells; format: cell-based, human
Description: For EGFP-α-synuclein degradation assay, equal numbers of sub-confluent SH-SY5Y cells are seeded in 6 well dishes and allowed to attach for 24 h. Cells are transfected with EGFP-α-synuclein plasmid using Lipofectamine 2000 (Life technologies) and allowed to express for 24 h.
After treatments, cells are collected in Laemmli buffer to perform LC3 processing assay, P70S6K, GSK3β and 4E-BP1 immunoblotting. To validate EGFP-α-synuclein degradation by 6-Bio, treated cells are scraped and collected in growth medium. After washing with phosphate buffer, pellets are lysed in Laemmli buffer and boiled for 10 min.
Samples are electrophoresed on SDS-PAGE (8-15%) and then transferred onto PVDF (Bio-Rad) membrane using Transblot turbo (Bio-Rad). Transferred blots are stained with Ponceau S, probed with appropriate primary antibodies overnight and subsequently horseradish peroxidase conjugated secondary antibody. Signals are developed using enhanced chemiluminescence substrate (Clarity, Bio-Rad), imaged using a gel documentation system (G-Box, Syngene) and bands are quantified using image software (NIH). (FIGS. 4F and 5A)

lysosome = assay: Lysosomal function (lysotracker, LAMP1) in HeLa cells; format: cell-based, human
[1] = Rotarod test in MPTP mice; format: in vivo; conditions: 5 mg/kg
Description: (§1) All the behavioural experiments are done on 3-4 month old, male C57/B16 mice. Experimenters are blind to the drug injected animals. Experimenters handle mice used for behavioral experiments for 3 consecutive days prior to the training paradigm. Behavioral experiments are designed in an order of low to high stress activity for mice. Therefore, Open Field Test is conducted in forenoon while rotarod is performed in the afternoon.
(§2) Mice were habituated to the behaviour room for 15 minutes every day before start of experiments. The light intensity is maintained at 100 lux throughout the experiment. Mice are weighed every day before training or test to ensure their good health. Mice are randomly allocated into three treatment cohorts: placebo control, MPTP and 6-Bio. Data is plotted using GraphPad prism 5 software.
The rotarod instrument is custom made at the Mechanical workshop, National Centre of Biological Sciences, Bengaluru, India. The rotating rod (diameter 3.3 cm) is made of Delrin and is textured to enhance the grip of mice. The rod is fixed at a height of 30 cm from the cushioned platform where mice fell on to during training and test. The rod is partitioned into three areas of 9.3 cm distance between each partition using discs (40 cm diameter) made of Teflon. […] The entire trial is video recorded using a DSLR camera (Nikon D5100) and latencies are scored manually. […]

[2] = Open field test in MPTP mice; format: in vivo; conditions: 5 mg/kg
Description: as §1, §2
Open field arena (50 cm×50 cm×45 cm) is custom-made (JNCASR) using plywood and the internal surface was coated with white polish. Mice are trained in open field for 2 consecutive days prior to drug injection. […] The activity is video recorded (SONY® color video camera, Model no. SSC-G118) using a software (SMART v3.0.04 from Panlah, Harvard Apparatus, USA). […] Distance travelled is analyzed offline by an experimenter who was not involved in performing the experiment.

Atg8 and Atg5 = assay: Co-localization of GFP-Atg8 and Atg5-RedStar in yeast; format: cell-based, S. cerevisiae
EGFR = EGFR trafficking (endocytosis-mediated EGFR degradation); format: cell-based, human; conditions: HeLa; 100 ng/ml EGF; 0-3 hours
Description: HeLa cells are plated on 6 well plates and allowed to attach on the surface. The cells are washed with PBS and then starved in DMEM (serum free media) for 3 hours. Pre-treatment with compounds is carried out for 1 hour, following which they are pulsed with 100 ng/ml of EGF and samples are collected at 0, 1, 2 and 3 hours.

Atg8 = Atg8 immunolocalization in lace plant; format: cell-based, Aponogeton madagascariensis; conditions: two hours; same modulator concentrations as MDC; control 0.90±0.08
Description: Whole leaves are treated for two hours prior to fixation in 100% Methanol at 37° C. and then hydrophilized to 20% methanol by adding distilled water at 60° C. every two minutes for 32 minutes. Samples are then sectioned and placed on a multiwall slide and allowed to air dry for 10 minutes to facilitate membrane permeabilization. Blocking is done for 30 minutes at 37° C. with 4% low fat milk powder in 1× microtubule stabilization buffer MTSB (Modified 2× MTSB stock solution: 15 g PIPES, 1.9 g EDTA, 1.22 g MgSO4*7H2O and 2.5 g KOH—pH 7.0). Primary antibody incubation for anti-rabbit ATG8 (Agrisera, AS14 2769) is done at a 1:1000 dilution in 1× MTSB for 30 minutes at 37° C. Samples are then washed for 5 minutes, 3 times with 1× MTSB. Secondary antibody incubation with Goat anti-rabbit Dylight 488 (Agrisera AS09 633) at a 1:2000 dilution in 1× MTSB is done for 30 minutes at 37° C. and then samples are rinsed as above. Tissues are mounted in Mowiol 4-88 solution (Sigma, 81381) and scanned via confocal microscopy as mentioned above. The mean number of puncta per cell is determined using maximum intensity projections (MIPs) for each replicate. The total number of cells within a field of view are counted manually and the number of puncta are counted automatically using ImageJ.

## O=C1Nc2cc(Br)ccc2/C1=C1/Nc2ccccc2/C1=N\O [6-Bio, (2′Z,3′E)-6-Bromoindirubin-3′-oxime]
LC3B-II; 2 h
  LC3-II levels: increases LC3-II
LC3B-II; with lysosomal protease inhibitors, vs 6-Bio only
  LC3B-II accumulated in presence of E64D and Pepstatin A: significantly more
lysosome
  LAMP1 positive vesicle intensities and distribution: unaltered
lysosome; 2 h
  lysotracker staining (lysosome acidification): no change in lysosome acidification
[1]; MPTP+Co, day 13
  latency to fall, Co versus MPTP: increased
[1]; administered after 48 h MPTP
  latency to fall, Post versus MPTP: not protected
[2]; MPTP+Co, day 13
  distance travelled, Co versus MPTP: increased dramatically
[2]; administered after 48 h MPTP
  distance travelled, Post versus MPTP: not protected

## Cc1ccc(S(=O)(=O)/C=C/C#N)cc1 [Bay11, 3-[(4-methylphenyl)sulfonyl]-(2E)-propenenitrile]
Atg8 and Atg5; vs single puncta in untreated cells
  Atg5 punctate structures: multiple puncta
Atg8 and Atg5; vs untreated cells
  co-localization between Atg8 and Atg5 dots: significantly more co-localization
EGFR
  degradation of EGFR over time upon EGF treatment: no difference in the degradation of EGFR
Atg8
  mean number of Atg8 puncta per cell: 0.22±0.03
